This note sets out measurements from USRE40246E1, “Method for the suppression of viral growth” (John Hopkins University, priority 1994, dated 2008).

In one assay the test system is HSV-Sm44-ACVg. Nature of the assay: Drug sensitivity against ACV sensitive strain of HSV-1. The assay is classed as cell-based. The following applies: Human alphaherpesvirus 1, read-out: IC50, HSV-Sm44-ACVg.
Assay [1] has as its system HSV-1. Briefly: Drug sensitivity against HSV-1 in Vero cells at different viral passages. The following applies: for IC50: Human alphaherpesvirus 1, Vero. The assay is classed as cell-based. From the text: Virus which recovered from medium of each passage at IC50 drug concentration were used to infect the subsequent passage of the cells.
Assay [2] relates to HSV-1. Nature of the assay: Topical treatment of HSV-1 infected skin of guinea pigs. Format: in vivo. To be noted: guinea pig; for suppression of HSV-1 replication in infected skin: topical five times per day for five days, ABPS 2 and 4 mg/ml, tetramethoxyl NDGA 60 mg/ml, acyclovir 60 mg/ml. The procedure: It is also noted that tetramethoxyl NDGA 4N has been used in an animal system, i.e. to treat HSV infected skin of guinea pigs.
Two male guinea pigs (350 gm body weight) were used in the guinea pig experiment. The back skin of the animal was shaved and equally divided into six patches. Each skin patch was pinched with seven-pin needles and HSV-1 suspension was applied topically to infect each punched area. Twenty-four hours after infection, three agents (ABPS, 2 mg/ml, ABPS 4 mg/ml, tetramethoxyl NDGA, 4N 60 mg/ml and acyclovir 60 mg/ml) were applied to the infected areas five times per day for five days. Picture (FIG. 8) was taken 96 hours following infection.

Another assay relates to HSV-18m44-CV4r. Nature of the assay: Drug sensitivity against ACV resistant strain of HSV-1. Format: cell-based.
Assay [3] relates to Tat regulated transactivation (Tat-TRS) of HIV-1 LTR promoter. Nature of the assay: Secreted alkaline phosphatase (SEAP) assay for Tat transactivation in cotransfected COS cells. Format: cell-based. The following applies: for EC50: Human immunodeficiency virus 1, COS, 48 h; for Inhibition of Tat-induced SEAP expression: read at 30 minutes. From the text:
To screen for inhibitors for Tat regulated transactivation (Tat-TRS), the secreted placental alkaline phosphatase (SEAP) reporter gene is put under the control of HIV-1 LTR promoter in the plasmid pBC12HIV/SEAP. The Tat-coded activity is supplied by a second plasmid construct pBC12/CMV/t2. […] An inhibitor should cause reduction of the SEAP activity which is due to inhibition of the expression of the SEAP mRNA via transactivation of the HIV-1 LTR promoter by Tat protein (Tat-TRS).
For the SEAP assay, test materials were dissolved in 10% DMSO solution made in calcium/magnesium-free PBS. The suspension was centrifuged and the stock solution (10 mg/ml) was filter-sterilized using a Millex®-GS […] filter (Millipore). Appropriate dilutions of the stock solution were prepared in a final DMSO concentration of 0.2% in PBS to obtain the various concentrations of test compounds.
Briefly, a day before DNA transfection, Linbro® 24 flat bottom well of 17-mm diameter plates were pretreated with 0.5 ml sterile solution of 0.1% gelatin. The plates were kept in the hood for 1 hour (all transfection steps were performed in the hood, unless otherwise stated). The gelatin solution was aspirated and the plates were washed with 0.5 ml of IMDM supplemented with 10% fetal calf serum and antibiotics (complete medium). […] DNA transfection was performed at 30-50% cell confluency. The stock solution of the Transfectam reagent, DOGS, was prepared according to the manufacturer's advice at 1 mg/0.380 ml ([…] or 3.4 mM) in 10% (v/v) ethanol in distilled water.
The transfection cocktail consisted of two solutions prepared in sterile tubes: • a) Solution A contained a sterile 150 mM NaCl solution+plasmid DNAs (non selected/selected gene in 2:1 ratio): 0.35 μg of pBC12/HIV/SEAP per well+0.175 μg of pBC12/CMB/t2 (coding for Tat function) per well. • b) Solution B Contained an equal volume of 150 mM NaCl and a volume of Transfectame determined to be 6 times the total amount of DNAS. Solutions A and B were homogenized and immediately mixed.
Ten minutes were allowed for the reaction to proceed. Meanwhile, the growth medium was removed from the subconf luent COS cells and 300 μl (100 μl of complete IMDM+200 μl serum-free medium) were added to each well. The transfection cocktail was dispensed to the wells in equal volume. Control samples containing no DNA were similarly treated and received sterile 150 mM NaCl solution alone. All samples were incubated for 10 and 12 hours after which 700 μl of complete growth medium were added. Test compounds prepared in 5% DMSO/Ca-Mg-free PBS (for non-water-soluble materials) were immediately added at various concentrations to the wells. Drug-untreated control samples received 5% DMSO/PBS solution alone (final DMSO concentration of 0.2%). All samples were then incubated for an additional 48 hours after which 300 μl of each culture supernatant was removed for SEAP analysis.
Briefly, a 250-μl aliquot was removed from COS cell culture supernatants, heated at 65° C. for 5 minutes to selectively inactivate endogenous phosphatase (SEAP is heat stable) and centrifuged in a microfuge for 2 minutes. One hundred μl of 2×SEAP assay buffer (1.0 M diethanolamine, pH 9.8; 0.5 mM MgCl2; 10 mm L-homoarginine) were added to 100-μl aliquot of the samples. The solution was mixed and transferred into a 96-well flat-bottom culture dish (Corning). Twenty μl of pre-warmed substrate solution (120 mM p-nitrophenylphosphate dissolved in 1×SEAP assay buffer) were dispensed with a multipipeter into each well containing the reaction mixture. A405 of the reaction was read at 5-minute intervals at 37° C. for 60 minutes using an EL340i microplate reader (Bio-tek Instruments, Inc.) with 5-second automatic shakings before each reading. The change in absorbance was plotted against time in the standard assay of SEAP induction.

Another assay concerns uninfected CEM-SS cells. Nature of the assay: Soluble-formazan (XTT) assay, viability of uninfected CEM-SS cells. The following applies: Homo sapiens, read-out: IC50, inhibitory or toxic concentration reducing XTT formazan production in uninfected cultures to 50%. Format: cell-based. On the technique in general: Tetrazolium dyes change colour on reduction, which living cells bring about.

The next assay relates to HIV-1. Nature of the assay: microbe, parasite or virus in culture. To be noted: Human immunodeficiency virus 1, CEM-SS, read-out: EC50, concentration that protects XTT formazan production in infected culture to 50% of uninfected, untreated cells.
Assay [4] deals with HSV-1. Nature of the assay: Inhibition of HSV-1 replication in Vero cells. The assay is classed as cell-based. To be noted: Human alphaherpesvirus 1, Vero.
The next assay relates to HSV-1 ICP4. Nature of the assay: Inhibition of HSV-1 ICP4 transactivation in Vero cells. Format: cell-based. The following applies: Human alphaherpesvirus 1, Vero.
The next assay concerns Vero cells. Briefly: Inhibition of growth of Vero cells. The following applies: Chlorocebus sabaeus. The assay is classed as cell-based.
[5] abbreviates: read-out: IC50 against HSV-1 in Vero Cells, Passage 1.
Where [6] appears, read: read-out: IC50 against HSV-1 in Vero Cells, Passage 2.
Setting [7] is: read-out: IC50 against HSV-1 in Vero Cells, Passage 3.
Setting [8] is: read-out: IC50 against HSV-1 in Vero Cells, Passage 4.
[9] abbreviates: read-out: IC50 against HSV-1 in Vero Cells, Passage 5.
The mark [10] stands for this setting: read-out: IC50 against HSV-1 in Vero Cells, Passage 10.
The mark [11] stands for this setting: Human alphaherpesvirus 1, read-out: IC50, HSV-18m44-CV4r.
The mark [12] stands for this setting: read-out: EC50 (concentration exhibiting 50% inhibition) of Tat regulated HIV transactivation, SEAP expression.
[13] abbreviates: read-out: EC50 of Tat regulated HIV transactivation, SEAP expression.
[14] abbreviates: Mal 4 at 9.5 μm, NDGA at 9.9 μm.
The mark [15] stands for this setting: Mal 4 at 31.3 μm, NDGA at 32.6 μm.
The mark [16] stands for this setting: Mal 4 at 62.7 μm, NDGA at 65.2 μm.

The inhibition is the relative decrease from the control value, in per cent. High values mean a response far below the control, low ones a response near the control.

Several values for one entry are separate records, joined by “and”; a condition that tells them apart may be missing. Equal entries are not always repeated. Where two headings read alike, the source gives them in different places.

Regarding `Nc1nc2c(ncn2COCCO)c(=O)[nH]1` [ACV, acyclovir, reference compound], the IC50 with HSV-Sm44-ACVg was less than 6.9 µM; in the assay with HSV-1 [1] (setting [5]), 7.5 µM; in the assay with HSV-1 [1] (setting [6]) it was 37.8 µM; in the assay on HSV-1 [1] (setting [7]) it was greater than 88.8 µM; with HSV-1 [1] (setting [8]), 138 µM; in the assay with HSV-1 [1] (setting [9]), greater than 220 µM. Also, the IC50 in the assay on HSV-1 [1] (setting [10]) was determined as 440 µM; in the assay with HSV-1 [1] (read-out: concentration required to inhibit HSV-1, 10th passage) it was 440 µM; in the assay on HSV-1 [1] (read-out: concentration required to inhibit HSV-1, first passage) it was 7.5 µM; in the assay on HSV-18m44-CV4r (setting [11]), 118 µM. Further, the “suppression of HSV-1 replication in infected skin” value with HSV-1 [2] was “effective”.
In the case of `COc1ccc(CC(C)C(C)Cc2ccc(O)c(O)c2)cc1O` (stereo not shown) [Mal 4, 1-(3,4-dihydroxyphenyl)-4-(3-hydroxy-4-methoxyphenyl)-2,3-dimethylbutane], the EC50 in [3] (setting [12]) was 8 µg/mL; in assay [3] (setting [13]) it was 25 µM; with HIV-1, 4.25 µg/mL and 13.4 µM. In addition, the “Inhibition of Tat-induced SEAP expression” value stood at 13.6% in assay [3] (setting [14]); 60.4% in [3] (setting [15]); 92% in assay [3] (setting [16]); 100% in [3] (Mal 4 at 95 μm, NDGA at 99 μm). Further, the IC50 in the assay with uninfected CEM-SS cells is 100 µg/mL and 325 µM.
Regarding `CC(Cc1ccc(O)c(O)c1)C(C)Cc1ccc(O)c(O)c1` (stereo not shown) [NDGA, 1,4-bis-(3,4-dihydroxyphenyl)-2,3-dimethylbutane], the EC50 in [3] (setting [12]) was 6 µg/mL; in [3] (setting [13]), 20 µM. The “Inhibition of Tat-induced SEAP expression” value in assay [3] (setting [14]) is 17.0%; in [3] (setting [15]) it was 73.8%; in assay [3] (setting [16]), 88.1%; in assay [3] (Mal 4 at 95 μm, NDGA at 99 μm) it was 92.9%.
Take `COc1ccc(C[C@@H](C)[C@@H](C)Cc2ccc(OC)c(OC)c2)cc1OC` [Tetramethoxyl NDGA, tetramethoxyl nordihydroguaiaretic acid]: the IC50 was 7.7 µM in the assay on HSV-1 [4]; 6.9 µM in the assay on HSV-Sm44-ACVg; roughly 10 µM in the assay on HSV-1 [1] (read-out: IC50 against HSV-1, essentially the same from first passage to tenth passage, first to tenth passage in vero cells); 11.7 µM in the assay on HSV-1 [1] (setting [5]); 4.4 µM with HSV-1 [1] (setting [6]); 8.2 µM with HSV-1 [1] (setting [7]). Further, the IC50 is 5.9 µM in the assay on HSV-1 [1] (setting [8]); 9.9 µM in the assay with HSV-1 [1] (setting [9]); 10 µM in the assay on HSV-1 [1] (setting [10]); 33 µM in the assay on HSV-1 ICP4; 142 µM in the assay on Vero cells; 6.9 µM in the assay on HSV-18m44-CV4r (setting [11]). Moreover, the IC50 with HSV-18m44-CV4r (Human alphaherpesvirus 1, read-out: IC50 against acyclovir resistant strain (HSV-1 SM44-CV4r)) worked out at 6.9 µM. The molecule also registered an inhibition at 0.437 µM with HSV-1 [4] (0.437 μM) of less than 0%. Moreover, in the assay with HSV-1 [4] (0.875 μM), the inhibition at 0.875 µM was less than 0%. Moreover, the inhibition at 1.75 µM in the assay with HSV-1 [4] (1.75 μM) was less than 0%. Moreover, the inhibition at 3.5 µM in the assay on HSV-1 [4] (3.5 μM) was determined as 20%. This molecule also displayed an inhibition at 7 µM with HSV-1 [4] (7 μM) of 40%. In the assay with HSV-1 [4] (14 μM), the inhibition at 14 µM was 97.5%. For the same molecule, in the assay with HSV-1 [1] (following ten viral passages in vero cells), the “drug resistance of HSV virus toward the drug” value was “showed no drug resistance”. For the same molecule, the inhibition at 20 µM with HSV-1 ICP4 (20 μM) is 8%. In the assay with HSV-1 ICP4 (30 μM), testing at 30 µM gave an inhibition of 30%. The inhibition at 40 µM in the assay on HSV-1 ICP4 (40 μM) came out at 35%. This molecule showed an inhibition at 50 µM in the assay with HSV-1 ICP4 (50 μM) of 52%. Further, in the assay on HSV-1 ICP4 (60 μM), 60 µM produced 64% inhibition. Also, the inhibition at 70 µM is 68% in the assay with HSV-1 ICP4 (70 μM) and 9.55% in the assay on Vero cells (70 μM). The inhibition at 80 µM with HSV-1 ICP4 (80 μM) is 78%. Further, in the assay with Vero cells (4.37 μM), the inhibition at 4.37 µM stood at 1.27%. In addition, in the assay with Vero cells (8.75 μM), the inhibition at 8.75 µM amounted to 3.18%. Besides, the inhibition at 17.5 µM in the assay with Vero cells (17.5 μM) was 7.64%. Besides, the inhibition at 35 µM in the assay on Vero cells (35 μM) is 7.64%. In the assay on Vero cells (140 μM), this molecule returned an inhibition at 140 µM of 44%. Testing at 280 µM with Vero cells (280 μM) gave an inhibition of 79.6%. Also, the “HSV-1 growth at infected skin areas” value in the assay with HSV-1 [2] (60 mg/ml, daily topical treatment, five days) was “eliminated HSV-1 growth completely”. The “suppression of HSV-1 replication in infected skin” value in the assay on HSV-1 [2] was “effective”.
